Results on 1 molecule are retold here after the NIST ThermoML archive (doi:10.1021/acs.jced.7b01011).

The structures appear in SMILES notation. ± gives the expanded uncertainty stated by the source.

The conditions of data set [1]: Crystal; DTA.
Data set [2] can be described thus: Molar enthalpy of transition or fusion. The following applies: Crystal; DSC.

As to `Cc1ccc(NC(=O)/C(=C/Cl)Sc2ccccc2)cc1` [(Z)-3-chloro-2-phenylthio-N-(p-tolyl)acrylamide], the Normal melting temperature in data set [1] was 108.00 ± 1.1 °C. The “Molar enthalpy of transition or fusion” value in data set [2] stood at 6.16 ± 0.232 kcal/mol.
